# Measurements: patent US9783545B2, “Pyrazolopyridazines and methods for treating retinal-degenerative diseases and hearing loss associated with usher syndrome” (Usher III Initiative, Inc., priority 2012, dated 2017)
# Target: T1, N48K Clarin-1 (Homo sapiens, UniProt P58418, N48K)
# T1 construct: expressed in transfected cells
# T1 sequence (P58418 1-232 N48K): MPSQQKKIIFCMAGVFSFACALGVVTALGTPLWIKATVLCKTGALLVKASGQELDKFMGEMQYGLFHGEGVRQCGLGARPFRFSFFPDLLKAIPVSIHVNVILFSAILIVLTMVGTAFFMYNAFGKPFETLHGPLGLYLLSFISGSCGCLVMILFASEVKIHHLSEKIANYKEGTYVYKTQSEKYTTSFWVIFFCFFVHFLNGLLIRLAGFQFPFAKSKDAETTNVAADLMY
# Test: Restoration of expression of N48K Clarin-1, 24 hour incubation (high content imaging of HA-tagged N48K Clarin-1)
# Format: cell-based
# Settings: HEK293-Clarin-1 N48K-HA D9 cell line, 24 hr incubation with compound; read-out: IC50 (the source's name)
# Protocol: Assay Method Showing Activity of Compounds of the Invention that Restore Expression of N48K Clarin-1 (24 hour incubation)
# (§1) Clarin-1 is the protein encoded by the gene mutated in Usher III Syndrome (Adato et al., 2002). The most prevalent mutation in Clarin-1 in North America is N48K, which is reported to cause loss of glycosylation and a trafficking defect (Tian et al., 2009). […] Thus it is believed that restoring the trafficking of N48K Clarin-1 to the cell surface provides an avenue of intervention for Usher III Sydrome.
# (§2) In a typical experiment, these cells were seeded on collagen-coated 96-well plates at a cell density of 20,000 cells per well in Dulbecco's Modified Eagle Medium (DMEM) contain 10% fetal bovine serum in a humidified incubator at 37° C., 5% CO2. After an overnight incubation, compounds were added for a 24 hr incubation in DMEM medium contain 10% fetal bovine serum in a humidified incubator at 37° C., 5% CO2. As a negative control, DMSO was used at 0.25% final concentrations. Compounds were typically tested in triplicate fashion. After the 24 hr incubation with compounds, the cells were fixed by the addition of 10% buffered formalin to the wells to achieve a final concentration of 4% formalin. After a 20 min fixation at room temperature, wells were washed three times with phosphate-buffered saline (PBS) containing Triton X-100 (0.02 phosphate, 150 mM NaCl, 0.1% Triton X-100).
# (§3) The HA-tagged N48K Clarin-1 was detected with an antibody against the HA tag (HA.11 Clone 16B12 Monoclonal antibody, Covance #MMS-101P) at a dilution of 1:1000 in PBS containing Triton X-100. After a 90 min incubation, wells were washed three times with PBS containing Triton X-100, and a secondary antibody (Goat anti-mouse IgG-Cy3 (1.5 mg/ml), Jackson IR Europe #115165003) was added to the wells at a dilution of 1:250 in PBS containing Triton X-100 for 45 min. Wells were subsequently washed three times with PBS containing Triton X-100, and a final staining for nuclei was performed by the addition of DAPI (4′,6-diamidino-2-phenylindole) at a dilution of 1:10,000. The imaging of the stained cells was performed on an InCell 1000 High Content Imager (GE Healthcare), reading out the Cy3 channel for N48K Clarin-1 and the DAPI channel for nuclei. The images were analyzed and quantitated using a specific algorithm. This algorithm measured the HA-Clarin-1 staining for each cell based on the additional nuclear segmentation of the DAPI signal (FIG. 1). This algorithm measured the intensity per cell, and thus it is less sensitive for variation in cell number. Per well, approximately 2,000 cells were measured to achieve an average density per cell measurement. FIG. 1 illustrates high content analysis. DAPI-stained nuclei are used to perform segmentation of the image into individual cells. The density observed in the N48K Clarin-1 channel (Cy3) is then calculated per cell averaged over a field.
row,EC50 [µM],Compound
1,2 to 5,"Cc1n[nH]c2nnc(-c3ccccc3)c(Cl)c12 [Iu, 4-chloro-3-methyl-5-phenyl-1H-pyrazolo[3,4-c]pyridazine]"
2,≤ 2,"Cc1nn(CCN2CCN(C)CC2)c2nnc(-c3ccccc3)c(Cl)c12 [Iv, 4-chloro-3-methyl-1-[2-(4-methylpiperazin-1-yl)ethyl]-5-phenyl-pyrazolo[3,4-c]pyridazine]"
3,2 to 5,"Cc1nn(CC(=O)N2CCCC2)c2nnc(-c3ccccc3)c(Cl)c12 [Iw, 2-(4-chloro-3-methyl-5-phenyl-pyrazolo[3,4-c]pyridazin-1-yl)-1-pyrrolidin-1-yl-ethanone]"

# Target: T1, N48K Clarin-1
# Test: Restoration of expression of N48K Clarin-1, 2 hour incubation then 22 hr fresh medium (high content imaging of HA-tagged N48K Clarin-1)
# Format: cell-based
# Settings: HEK293-Clarin-1 N48K-HA D9 cell line, 2 hr incubation with compound, then 22 hr in fresh medium
# Protocol: An Assay Method Showing Activity of Compounds of the Invention that Restore Expression of N48K Clarin-1(2 hour incubation)
# as §1
# as §2, with “for a 2 hr incubation” for “for a 24 hr incubation”, “After the 2 hr incubation” for “After the 24 hr incubation”, “cells were incubated in fresh medium for 22 hr. The cells were then fixed by” for “cells were fixed by”
# as §3, with “images are” for “images were”, “measurement.” for “measurement. FIG. 1 illustrates high content analysis. DAPI-stained nuclei are used to perform segmentation of the image into individual cells. The density observed in the N48K Clarin-1 channel (Cy3) is then calculated per cell averaged over a field.”
row,Compound,IC50 [µM]
1,"Cn1nc(-c2ccccc2)c2c(Cl)c(I)nnc21 [IIIa, 4-chloro-5-iodo-1-methyl-3-phenyl-pyrazolo[3,4-c]pyridazine]",4 to 8
2,"Cn1nc(-c2ccccc2)c2c(Cl)c(C3=CCCC3)nnc21 [IIIb, 4-chloro-5-(cyclopenten-1-yl)-1-methyl-3-phenyl-pyrazolo[3,4-c]pyridazine]",4 to 8
3,"FC1(F)CCN(CCn2nc(-c3ccccc3)c3c(Cl)c(-c4ccccc4)nnc32)C1 [IIv, 4-chloro-1-[2-(3,3-difluoropyrrolidin-1-yl)ethyl]-3,5-diphenyl-pyrazolo[3,4-c]pyridazine]",4 to 8
4,"FC1(F)CN(CCn2nc(-c3ccccc3)c3c(Cl)c(-c4ccccc4)nnc32)C1 [IIw, 4-chloro-1-[2-(3,3-dilluoroazetidin-1-yl)ethyl]-3,5-diphenyl-pyrazolo[3,4-c]pyridazine]",4 to 8
5,"Cc1ccc(-c2nn(CCN3CCN(C)CC3)c3nnc(-c4ccccc4)c(Cl)c23)s1 [Icc, 4-chloro-1-[2-(4-methylpiperazin-1-yl)ethyl]-3-(5-methyl-2-thienyl)-5-phenyl-pyrazolo[3,4-c]pyridazine]",≤ 4
6,"Cc1ccc(-c2nn(CCN3CCN(C)CC3)c3nnc(-c4ccccc4)c(Cl)c23)o1 [Io, 4-chloro-3-(5-methyl-2-furyl)-1-[2-(4-methylpiperazin-1-yl)ethyl]-5-phenyl-pyrazolo[3,4-c]pyridazine]",≤ 4
7,"Clc1c(-c2ccccc2)nnc2c1c(C1=CCOCC1)nn2CCN1CCCC1 [Is, 4-chloro-3-(3,6-dihydro-2H-pyran-4-yl)-5-phenyl-1-(2-pyrrolidin-1-ylethyl)pyrazolo[3,4-c]pyridazine]",≤ 4
8,"CS(=O)(=O)CCn1nc(C2CC2)c2c(Cl)c(-c3ccccc3)nnc21 [Ix, 4-chloro-3-cyclopropyl-1-(2-methylsulfonylethyl)-5-phenyl-pyrazolo[3,4-c]pyridazine]",8 to 12
9,"CN1CCN(CCn2nc(-c3ccccn3)c3c(Cl)c(-c4ccccc4)nnc32)CC1 [Iy, 4-chloro-1-[2-(4-methylpiperazin-1-yl)ethyl]-5-phenyl-3-(2-pyridyl)pyrazolo[3,4-c]pyridazine]",≤ 4
10,"CN1CCN(CCn2nc(N3CCCC3)c3c(Cl)c(-c4ccccc4)nnc32)CC1 [Iz, 4-chloro-1-[2-(4-methylpiperazin-1-yl)ethyl]-5-phenyl-3-pyrrolidin-1-yl-pyrazolo[3,4-c]pyridazine]",≤ 4
11,Cc1nn([C@@H]2C[C@H]3CC[C@@H](C2)N3)c2nnc(-c3ccccc3)c(Cl)c12 [XIIIa],4 to 8
12,"Cn1cncc1Cn1nc(-c2cccn2C)c2c(Cl)c(-c3ccccc3)nnc21 [XIIIb, 4-chloro-1-[(3-methylimidazol-4-yl)methyl]-3-(1-methylpyrrol-2-yl)-5-phenyl-pyrazolo[3,4-c]pyridazine]",4 to 8
13,"Cn1nc(N2CCCC2)c2c(Cl)c(-c3ccccc3)nnc21 [XIIIc, 4-chloro-1-methyl-5-phenyl-3-pyrrolidin-1-yl-pyrazolo[3,4-c]pyridazine]",8 to 12

# Continued, values first:
row,IC50 [µM],Compound
1,≤ 4,"F[C@H]1CCN(CCn2nc(-c3ccccc3)c3c(Cl)c(-c4ccccc4)nnc32)C1 [IIt, 4-chloro-1-[2-[(3S)-3-fluoropyrrolidin-1-yl]ethyl]-3,5-diphenyl-pyrazolo[3,4-c]pyridazine]"
2,≤ 4,"F[C@@H]1CCN(CCn2nc(-c3ccccc3)c3c(Cl)c(-c4ccccc4)nnc32)C1 [IIu, 4-chloro-1-[2-1[(3R)-3-fluoropyrrolidin-1-yl]ethyl]-3,5-diphenyl-pyrazolo[3,4-c]pyridazine]"
3,≤ 4,"Fc1cccc(-c2nn(CCN3CC[C@@H](F)C3)c3nnc(-c4ccccc4)c(Cl)c23)c1 [IIx, 4-chloro-3-(3-fluorophenyl)-1-[2-[(3R)-3-fluoropyrrolidin-1-yl]ethyl]-5-phenyl-pyrazolo[3,4-c]pyridazine]"
4,≤ 4,"Fc1ccc(-c2nn(CCN3CC[C@@H](F)C3)c3nnc(-c4ccccc4)c(Cl)c23)cc1 [IIy, 4-chloro-3-(4-fluorophenyl)-1-[2-[(3R)-3-fluoropyrrolidin-1-yl]ethyl]-5 phenyl-pyrazolo[3,4-c]pyridazine]"
5,4 to 8,"F[C@@H]1CCN(CCn2nc(I)c3c(Cl)c(-c4ccccc4)nnc32)C1 [Ip, 4-chloro-1-[2-[(3R)-3-fluoropyrrolidin-1-yl]ethyl]-3-iodo-5-phenyl-pyrazolo[3,4-c]pyridazine]"
6,4 to 8,"F[C@@H]1CCN(CCn2nc(C3=CCOCC3)c3c(Cl)c(-c4ccccc4)nnc32)C1 [Iq, 4-chloro-3-(3,6-dihydro-2H-pyran-4-yl)-1-[2-[(3R)-3-fluoropyrrolidin-1-yl]ethyl]-5-phenyl-pyrazolo[3,4-c]pyridazine]"
7,≤ 4,"Clc1c(-c2ccccc2)nnc2c1c(I)nn2CCN1CCCC1 [Ir, 4-chloro-3-iodo-5-phenyl-1-(2-pyrrolidin-1-ylethyl)pyrazolo[3,4-c]pyridazine]"
8,4 to 8,"O=C(Cn1nc(I)c2c(Cl)c(-c3ccccc3)nnc21)N1CC[C@@H](F)C1 [It, 2-(4-chloro-3-iodo-5-phenyl-pyrazolo[3,4-c]pyridazin-1-yl)-1-[(3R)-3-fluoropyrrolidin-1-yl]ethanone]"
9,4 to 8,"Cc1nn(CCN2CCCC2)c2nnc(-c3ccccc3)c(Cl)c12 [XIIId, 4-chloro-3-methyl-5-phenyl-1-(2-pyrrolidin-1-ylethyl)pyrazolo[3,4-c]pyridazine]"
